Where two headings read alike, the source gives them in different places.
Experiments:
[1] = Plasma pharmacokinetics after i.m. injection proximal to the sciatic nerve; type: in vivo, C57BL/6 mice
[2] = test system: phosphorylated NF-κB p65; assay: TNF-induced NF-κB p65 phosphorylation in U937 monocytes; type: cell-based, human
[3] = test system: L929 cells; assay: L929 cell proliferation / cytotoxicity without TNFα; type: cell-based, murine; conditions: curcumin in DMSO; not shown
[4] = test system: TNFα-induced cytotoxicity in L929 fibrosarcoma cells; assay: L929 cytoprotection assay against TNFα; type: cell-based, murine
[5] = type: in vivo, C57BL/6 mice
[6] = female, C57BL/6, mouse, plasma, im, 40 μl of 6 mM

AUC [1, 6]: 0.87 ± 0.13 µM·h
Tmax [1, 6]: 1 to 2 h
time window with plasma curcumin significantly above naïve plasma ([1]; mouse, i.m., one-way ANOVA p < 0.0001): 0.5 to 4 h
Mass of curcumin in injection-site tissue ([5]; 0 h, maximum recoverable, injected after sacrifice, n = 1): 158 nmol
%ID (nmol/nmol) at injection site ([5]; 0 h, maximum recoverable, n = 1): 59 %ID
%ID (nmol/nmol) at injection site ([5]; 2 h, mean ± SEM): 36 ± 8.9 %ID
Mass of curcumin in injection-site tissue ([5]; 2 h, mean ± SEM): 98 ± 24 nmol
%ID (nmol/nmol) at injection site ([5]; 48 h, mean ± SEM): 0.25 ± 0.002 %ID
Mass of curcumin in injection-site tissue ([5]; 48 h, mean ± SEM): 0.67 ± 0.004 nmol
%ID (nmol/nmol) at injection site ([5]; 96 h, mean ± SEM): 0.14 ± 0.04 %ID
Mass of curcumin in injection-site tissue ([5]; 96 h, mean ± SEM): 0.39 ± 0.12 nmol
SMILES: COc1cc(/C=C/C(=O)CC(=O)/C=C/c2ccc(O)c(OC)c2)ccc1O [curcumin]
attenuation of TNF-induced increases in NF-kB phosphorylation ([2]; high (5 μM) and low (0.5 μM) doses, 50 ng/ml TNFα 10 min): able to attenuate TNF-induced increases in NF-kB phosphorylation in a dose-dependent manner
effect on basal NF-kB phosphorylation ([2]; high (5 μM) and low (0.5 μM) doses, no TNFα): no statistically significant effect
attenuation of TNF-induced monocyte NF-κB activation ([2]; high micromolar dose (5 μM), 2 h pre-incubation, 50 ng/ml TNFα 10 min): equally attenuated
dose with some cytotoxic effects [3]: above 30 μM
IC50 ([4]; Mus musculus, L929, 24 h): 13.5 µM
Hill slope, k ([4]; logistic fit, Equation 1): 1.472

From article PMC3990405 (Journal of controlled release : official journal of the …, 2013)
